Laboratory results from ChEMBL document CHEMBL1153531, “1- or 3-(3-Amino-2-hydroxy-1-phenyl propyl)-1,3-dihydro-2H-benzimidazol-2-ones: potent, selective, and orally efficacious norepinephrine reuptake inhibitors” (J Med Chem, 2009).
Activity calls are given as the source filed them. The rule behind the calls is not given here.

Legend:
[1] = molecular target: Sodium-dependent serotonin transporter (Homo sapiens) (UniProt P31645); assay: Inhibition of [3H]hydroxytryptamine creatinine sulfate uptake at human SERT expressed in human JAR cells at 1 uM; type: cell-based
[2] = molecular target: Sodium-dependent dopamine transporter (Homo sapiens) (UniProt Q01959); assay: Inhibition of [3H]WIN-35428 binding to human recombinant DAT expressed in CHO cells at 10 uM by scintillation counting; type: cell-based
[3] = organism: Homo sapiens; assay: Selectivity […] human SERT to IC50 for human NET
[4] = system: JAR; assay: Selectivity for human NET expressed in MDCK-Net6 cells over human SERT expressed in human JAR cells; type: cell-based
[5] = system: CHO; assay: Selectivity for human NET expressed in MDCK-Net6 cells over human DAT expressed in CHO cells; type: cell-based
[6] = system: Rattus norvegicus; assay: Effect on temperature homeostasis in telemetric ovariectomy-induced thermoregulatory dysfunction Sprague-Dawley rat model assessed as duration of tail skin temperature reduction at 3 mg/kg, po; type: functional
[7] = system: Rattus norvegicus; assay: Effect on temperature homeostasis in telemetric ovariectomy-induced thermoregulatory dysfunction Sprague-Dawley rat model assessed as mean reduction in tail skin temperature at 3 mg/kg, po relative to baseline; type: functional
[8] = system: Rattus norvegicus; assay: Effect on temperature homeostasis in telemetric ovariectomy-induced thermoregulatory dysfunction Sprague-Dawley rat model assessed as maximum reduction in tail skin temperature at 3 mg/kg, po relative to baseline; type: functional
[9] = system: Rattus norvegicus; assay: Analgesic activity in Sprague-Dawley rat acute analgesia model assessed as increase nocifensive latency at 10 mg/kg, po after 1 hr by hot plate assay; type: functional, organism-based; design: dose 10 mg/kg
[10] = system: Rattus norvegicus; assay: Analgesic activity in Sprague-Dawley rat acute analgesia model assessed as increase in nocifensive latency at 10 mg/kg, po after 3 hrs by hot plate assay; type: functional, organism-based; design: dose 10 mg/kg
[11] = system: Rattus norvegicus; assay: Analgesic activity in Sprague-Dawley rat acute analgesia model assessed as increase in nocifensive latency at 10 mg/kg, po after 5 hrs by hot plate assay; type: functional, organism-based; design: dose 10 mg/kg
[12] = system: Rattus norvegicus; assay: Antihyperalgesic in po dosed Sprague-Dawley rat spinal nerve ligation model of neuropathic pain assessed as complete hind paw withdrawal after 3 to 4 weeks post surgery by paw pressure technique analysis; type: functional, organism-based
[13] = molecular target: T1, Sodium-dependent noradrenaline transporter (Homo sapiens, UniProt P23975)
[14] = molecular target: Sodium-dependent serotonin transporter (Homo sapiens) (UniProt P31645); details: JAR
[15] = molecular target: T1, Sodium-dependent noradrenaline transporter; assay: biochemical
[16] = molecular target: Sodium-dependent dopamine transporter (Homo sapiens) (UniProt Q01959); assay: Inhibition of [3H]WIN-35428 binding to human recombinant DAT expressed in CHO cells by scintillation counting; type: cell-based
[17] = molecular target: Sodium-dependent dopamine transporter (Homo sapiens) (UniProt Q01959); assay: Inhibition of [3H]WIN-35428 binding to human recombinant DAT expressed in CHO cells at 1 uM by scintillation counting; type: cell-based
[18] = Plasma clearance in Sprague-Dawley rat at 5 mg/kg, iv; type: ADME, organism-based; design: dose 5 mg/kg, route intravenous
[19] = Cmax in Sprague-Dawley rat 10 mg/kg, po within 2 hrs; type: ADME, organism-based; design: dose 10 mg/kg, route oral; details: in vivo
[20] = Tmax in Sprague-Dawley rat at 10 mg/kg, po; type: ADME, organism-based; design: dose 10 mg/kg, route oral; details: in vivo
[21] = Terminal half life in Sprague-Dawley rat at 5 mg/kg, iv; type: ADME, organism-based; design: dose 5 mg/kg, route intravenous; details: in vivo, read-out: beta t1/2 (converted)
[22] = Terminal half life in Sprague-Dawley rat at 10 mg/kg, po; type: ADME, organism-based; design: dose 10 mg/kg, route oral; details: in vivo, read-out: beta t1/2 (converted)
[23] = AUC (0 to infinity) in Sprague-Dawley rat at 5 mg/kg, iv; type: ADME, organism-based; design: time infinity, dose 5 mg/kg, route intravenous; details: plasma
[24] = AUC (0 to infinity) in Sprague-Dawley rat at 10 mg/kg, po; type: ADME, organism-based; design: time infinity, dose 10 mg/kg, route oral; details: plasma
[25] = Oral bioavailability in Sprague-Dawley rat at 10 mg/kg; type: ADME, organism-based; details: in vivo

T1 sequence (P23975 whole entry): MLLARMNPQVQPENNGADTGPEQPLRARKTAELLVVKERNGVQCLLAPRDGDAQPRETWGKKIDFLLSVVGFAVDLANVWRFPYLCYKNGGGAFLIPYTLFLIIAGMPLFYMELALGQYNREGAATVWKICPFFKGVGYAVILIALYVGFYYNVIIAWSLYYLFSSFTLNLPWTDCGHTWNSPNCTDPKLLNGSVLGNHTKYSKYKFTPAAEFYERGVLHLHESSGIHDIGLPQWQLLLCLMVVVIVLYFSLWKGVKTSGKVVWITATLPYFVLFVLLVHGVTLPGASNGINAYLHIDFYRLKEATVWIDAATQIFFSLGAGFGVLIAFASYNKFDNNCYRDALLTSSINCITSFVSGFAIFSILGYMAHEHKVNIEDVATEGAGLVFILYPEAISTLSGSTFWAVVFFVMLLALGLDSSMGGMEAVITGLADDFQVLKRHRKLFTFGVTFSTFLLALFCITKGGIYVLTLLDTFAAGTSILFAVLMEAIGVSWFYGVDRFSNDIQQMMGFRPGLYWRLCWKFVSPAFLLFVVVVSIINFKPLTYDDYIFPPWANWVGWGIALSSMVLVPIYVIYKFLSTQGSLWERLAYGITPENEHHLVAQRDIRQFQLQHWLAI
Chain of Sodium-dependent dopamine transporter (Homo sapiens) (Q01959 whole entry): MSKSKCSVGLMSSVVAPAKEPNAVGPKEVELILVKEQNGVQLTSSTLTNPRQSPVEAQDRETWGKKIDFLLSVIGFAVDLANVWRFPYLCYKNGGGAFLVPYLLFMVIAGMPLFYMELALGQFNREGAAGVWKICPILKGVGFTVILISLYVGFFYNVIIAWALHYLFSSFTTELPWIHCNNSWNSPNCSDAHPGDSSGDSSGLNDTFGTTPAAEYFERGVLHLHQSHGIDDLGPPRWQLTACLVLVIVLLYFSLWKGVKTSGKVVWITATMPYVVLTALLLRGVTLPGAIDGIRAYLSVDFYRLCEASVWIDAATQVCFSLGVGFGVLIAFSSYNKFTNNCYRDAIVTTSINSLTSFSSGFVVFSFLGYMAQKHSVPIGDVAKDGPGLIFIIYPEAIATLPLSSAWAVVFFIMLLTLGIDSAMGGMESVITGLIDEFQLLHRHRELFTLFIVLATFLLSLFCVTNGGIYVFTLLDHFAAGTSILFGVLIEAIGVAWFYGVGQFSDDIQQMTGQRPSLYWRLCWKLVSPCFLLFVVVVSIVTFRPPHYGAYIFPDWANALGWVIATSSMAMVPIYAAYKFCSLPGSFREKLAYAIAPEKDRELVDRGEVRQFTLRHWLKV
Chain of Sodium-dependent serotonin transporter (Homo sapiens) (P31645 whole entry, looked up): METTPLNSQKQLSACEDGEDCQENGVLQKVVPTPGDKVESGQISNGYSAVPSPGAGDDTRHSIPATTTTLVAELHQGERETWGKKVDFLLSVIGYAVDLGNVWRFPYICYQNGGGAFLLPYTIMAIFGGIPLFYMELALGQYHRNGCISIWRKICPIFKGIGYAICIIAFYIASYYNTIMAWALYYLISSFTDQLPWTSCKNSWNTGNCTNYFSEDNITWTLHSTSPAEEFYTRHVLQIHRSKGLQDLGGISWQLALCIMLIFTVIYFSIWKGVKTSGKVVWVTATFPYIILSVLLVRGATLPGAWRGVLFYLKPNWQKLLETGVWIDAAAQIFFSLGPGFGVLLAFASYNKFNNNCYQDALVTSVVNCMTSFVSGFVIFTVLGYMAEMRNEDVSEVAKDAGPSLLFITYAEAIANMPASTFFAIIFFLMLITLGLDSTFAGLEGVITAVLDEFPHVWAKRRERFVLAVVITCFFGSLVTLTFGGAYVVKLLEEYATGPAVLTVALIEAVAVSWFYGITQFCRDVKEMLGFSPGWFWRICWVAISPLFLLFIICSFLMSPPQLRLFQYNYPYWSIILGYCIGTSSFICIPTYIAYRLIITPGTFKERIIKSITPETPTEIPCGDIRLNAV

SMILES | inhibition [1] [%] | IC50 [13] [nM] | IC50 [15] [nM] | inhibition [2] [%] | IC5 [14] [µM] | further results
CCn1c(=O)n([C@@H](c2cccc(F)c2)[C@H](O)CNC)c2ccccc21 | 15 | 7.4 | 6.4 | -2 | > 10 | Selectivity ratio [3]: > 900; Selectivity ratio [4]: > 500; Selectivity ratio [5]: > 500; Time [6]: 5 h; Activity [7]: 2.03 °C; Activity [8]: 2.62 °C; Activity [9]: Active; Activity [10]: Active; Activity [11]: Active; Activity [12]: Dose-dependent effect
CNCC[C@@H](Oc1ccccc1C)c1ccccc1 |  |  |  |  |  | IC5 [16]: 48 nM
CNC[C@@H](O)[C@H](c1ccccc1)n1c(=O)n(C2CCCC2)c2ccccc21 | 46 | 66.7 |  | 20 | 2.37 | 
CCOc1ccccc1O[C@@H](c1ccccc1)[C@@H]1CNCCO1 |  |  |  |  |  | IC5 [16]: > 10000 nM
CNC[C@@H](O)[C@H](c1ccccc1)n1ccc2ccccc21 |  |  |  |  | 0.358 | IC5 [16]: 358 nM
CNC[C@@H](O)[C@H](c1ccccc1)n1c(=O)n(C(C)C)c2cccc(F)c21 | 6 | 7.8 |  | 12 | > 10 | Selectivity ratio [3]: > 900; Selectivity ratio [4]: > 500; Selectivity ratio [5]: > 500; Time [6]: 1 h; Activity [7]: 1.61 °C; Activity [8]: 2.09 °C
CCCn1c(=O)n([C@@H](c2ccccc2)[C@H](O)CNC)c2cc(F)ccc21 | 44 | 39.4 |  | 16 | 8.32 | 
CNC[C@@H](O)[C@H](c1cccc(F)c1)n1c(=O)n(C(C)C)c2cccc(F)c21 | 19 | 6.9 | 4.1 | 27 | 6.32 | IC5 [16]: 6320 nM; Selectivity ratio [3]: > 900; Selectivity ratio [4]: > 500; Selectivity ratio [5]: > 500; Time [6]: 6 h; Activity [7]: 2.44 °C; Activity [8]: 3.73 °C; clearance [18]: 24 mL/min/kg; Cmax [19]: 1120 ng/mL; Tmax [20]: 0.5 h; half-life [21]: 2.3 h; half-life [22]: 3.9 h; AUC(0-inf) [23]: 3650 ng·h/mL; AUC(0-inf) [24]: 7080 ng·h/mL; bioavailability [25]: 97%
CCn1c(=O)n([C@@H](c2cccc(F)c2)[C@H](O)CNC)c2c(F)cccc21 | 8 | 10.4 | 4.1 | 11 | > 10 | Selectivity ratio [3]: > 900; Selectivity ratio [4]: > 500; Selectivity ratio [5]: > 500

More lines, main results first:

inhibition [1] [%] | IC50 [13] [nM] | IC50 [15] [nM] | SMILES | inhibition [2] [%] | IC5 [14] [µM] | further results
1 | 56 |  | CNC[C@@H](O)[C@H](c1ccccc1)n1c(=O)n(C(C)(C)C)c2ccccc21 |  |  | inhibition [17]: 3%
5 | 42.5 | 90 | CNC[C@@H](O)[C@H](c1ccccc1)n1c(=O)n(C2CCC2)c2ccccc21 | 6 |  | 
4 | 17.5 | 16.8 | CCn1c(=O)n([C@@H](c2ccccc2)[C@H](O)CNC)c2ccccc21 |  |  | Time [6]: 3.5 h; Activity [7]: 1.57 °C; Activity [8]: 1.82 °C; clearance [18]: 54 mL/min/kg; Cmax [19]: 306 ng/mL; Tmax [20]: 1.1 h; half-life [21]: 3.6 h; half-life [22]: 3.4 h; AUC(0-inf) [23]: 1640 ng·h/mL; AUC(0-inf) [24]: 1840 ng·h/mL; bioavailability [25]: 56%
 | 91.9 |  | CNC[C@@H](O)[C@H](c1cccc(F)c1)n1c(=O)n(-c2ccccc2)c2cccc(F)c21 |  |  | inhibition [17]: 11%
-5 | 13.8 | 11.4 | CCn1c(=O)n([C@@H](c2ccccc2)[C@H](O)CNC)c2c(F)cccc21 | 29 |  | 
15 | 257 |  | CNC[C@@H](O)[C@H](c1ccccc1)n1c(=O)n(C)c2ccccc21 | 14 |  | 
19 | 13.4 | 10.8 | CNC[C@@H](O)[C@H](c1ccccc1)n1c(=O)n(C(C)C)c2ccccc21 | 19 |  | 
15 | 18.6 |  | CCCn1c(=O)n([C@@H](c2ccccc2)[C@H](O)CNC)c2ccccc21 | 6 |  | 
32 | 36.7 |  | CCn1c(=O)n([C@@H](c2ccccc2)[C@H](O)CNC)c2cc(F)ccc21 | 30 |  | 
 | > 1000 |  | CCNC[C@@H](O)[C@H](c1ccccc1)n1c(=O)n(C(C)C)c2ccc(F)cc21 |  |  | 
